From patent US9358096B2, “Methods of treatment with drug eluting stents with prolonged local elution profiles with high local concentrations and low systemic concentrations” (Abbott Laboratories, priority 2007, dated 2016)
Read-outs that look alike come from different tables or passages of the source.

Experiment: everolimus arterial tissue concentration in and next to the stented vessel
Type: in vivo, swine
Details: for Tmax: pig; for concentration at 3 days / concentration at 7 days / concentration at 28 days / concentration at 56 days / concentration at 90 days / concentration at 14 days: swine
[1] = 8×28 mm stent, 1070 μg everolimus (first aspect, matches group 1)
[2] = 10×28 mm stent, 1070 μg everolimus
[3] = 1070 μg, 8.0×28 mm stent, group 2, 1070 μg Lot #2, read-out: drug concentration in tissue proximal to stented region
[4] = 3209 μg, 8.0×28 mm stent, group 3, 3209 μg, read-out: drug concentration in tissue distal to stented region
[5] = 3209 μg, 8.0×28 mm stent, group 3, 3209 μg, read-out: drug concentration in tissue proximal to stented region
[6] = arterial tissue distal to stented region (unstented), 1070 μg, 10.0×28 mm stent, 1070 μg, read-out: drug concentration in tissue distal to stented region
[7] = arterial tissue of stented region, 1070 μg, 8.0×28 mm stent, group 2, 1070 μg Lot #2, read-out: drug concentration in tissue of stented region
[8] = arterial tissue of stented region, 1070 μg, 10.0×28 mm stent, 1070 μg, read-out: drug concentration in tissue of stented region
[9] = arterial tissue of the stented region, other: drug-eluting stent implanted in iliofemoral arteries, 1070 μg, 10.0×28 mm stent, 1070 μg, read-out: drug concentration in tissue of stented region
[10] = arterial tissue proximal to stented region (unstented), 1070 μg, 10.0×28 mm stent, 1070 μg, read-out: drug concentration in tissue proximal to stented region
[11] = arterial tissue, distal stented region (D), 7.0×100 mm stent, read-out: Mean Arterial Tissue Concentration, D distal stented region
[12] = arterial tissue, medial stented region (C), 7.0×100 mm stent, read-out: Mean Arterial Tissue Concentration, C medial stented region
[13] = arterial tissue, proximal stented region (B), 7.0×100 mm stent, read-out: Mean Arterial Tissue Concentration, B proximal stented region
[14] = arterial tissue, stented region, 3209 μg, 8.0×28 mm stent, group 3, 3209 μg, read-out: drug concentration in tissue of stented region
[15] = arterial tissue, unstented segment distal to stented region, 1070 μg, 8.0×28 mm stent, group 2, 1070 μg Lot #2, read-out: drug concentration in tissue distal to stented region
[16] = other: drug-eluting stent implanted in iliofemoral arteries, 1070 μg, 10.0×28 mm stent, 1070 μg, read-out: drug concentration in tissue distal to stented region
[17] = other: drug-eluting stent implanted in iliofemoral arteries, 1070 μg, 10.0×28 mm stent, 1070 μg, read-out: drug concentration in tissue proximal to stented region

For `CO[C@H]1C[C@@H]2CC[C@@H](C)[C@@](O)(O2)C(=O)C(=O)N2CCCC[C@H]2C(=O)O[C@H]([C@H](C)C[C@@H]2CC[C@@H](OCCO)[C@H](OC)C2)CC(=O)[C@H](C)/C=C(\C)[C@@H](O)[C@@H](OC)C(=O)[C@H](C)C[C@H](C)/C=C/C=C/C=C/1C` [everolimus, 40-O-(2-hydroxyethyl)-rapamycin], the “tissue Cmax” value (7×100 mm stent, 3777 μg everolimus) was no less than 16347 ng/g, the “tissue Cmax” value [1] was no less than 12946 ng/g and the “tissue Tmax” value [1] was 72 h. The “tissue Cmax” value (8×28 mm stent, 1070 μg everolimus (second aspect, matches group 2)) was no less than 8709 ng/g, the “tissue Cmax” value (8×28 mm stent, 3209 μg everolimus) was no less than 22027 ng/g and the “tissue Cmax” value [2] was no less than 6607 ng/g. The “tissue Tmax” value [2] was 72 h, the Tmax (arterial tissue of the stented vessel, 1070 ug, 8×28 mm stent, 1070 μg everolimus (second aspect, matches group 2)) was 72 h and the Tmax (arterial tissue of the stented vessel, 3209 ug, 8×28 mm stent, 3209 μg everolimus) was 72 h. It also gave a Tmax (arterial tissue, 3777 ug, 7×100 mm stent, 3777 μg everolimus) of 72 h, a concentration at 3 days [3] of 533 ng/g and a concentration at 7 days [3] of 104 ng/g. It also gave a concentration at 28 days [3] of 50 ng/g, a concentration at 56 days [3] of 10 ng/g and a concentration at 90 days [3] of 16 ng/g. It also gave a concentration at 3 days [4] of 856 ng/g, a concentration at 3 days [5] of 520 ng/g and a concentration at 7 days [4] of 910 ng/g. The concentration at 7 days [5] was 698 ng/g, the concentration at 14 days [4] was 1120 ng/g and the concentration at 14 days [5] was 307 ng/g. The concentration at 28 days [4] was 414 ng/g, the concentration at 28 days [5] was 136 ng/g and the concentration at 90 days [4] was 63 ng/g. The concentration at 90 days [5] was 55 ng/g, the concentration at 7 days [6] was 208 ng/g and the concentration at 14 days [6] was 251 ng/g. The concentration at 28 days [6] was 86 ng/g, the concentration at 3 days [7] was 8710 ng/g and the concentration at 7 days [7] was 3590 ng/g. It also gave a concentration at 28 days [7] of 1850 ng/g, a concentration at 56 days [7] of 2190 ng/g and a concentration at 90 days [7] of 1270 ng/g. For the same molecule, the concentration at 14 days [8] was 4140 ng/g, the concentration at 28 days [8] was 3930 ng/g and the concentration at 3 days [9] was 6610 ng/g. The concentration at 7 days [9] was 5100 ng/g, the concentration at 90 days [9] was 2300 ng/g and the concentration at 14 days [10] was 40 ng/g. The concentration at 28 days [10] was 12 ng/g, the concentration at 3 days [11] was 12400 ng/g and the concentration at 7 days [11] was 9630 ng/g. The concentration at 14 days [11] was 6530 ng/g, the concentration at 28 days [11] was 4280 ng/g and the concentration at 90 days [11] was 2400 ng/g. It also gave a concentration at 3 days [12] of 16300 ng/g, a concentration at 7 days [12] of 11400 ng/g and a concentration at 14 days [12] of 5240 ng/g. For the same molecule, the concentration at 28 days [12] was 4150 ng/g, the concentration at 90 days [12] was 2700 ng/g and the concentration at 3 days [13] was 10900 ng/g. For the same molecule, the concentration at 7 days [13] was 7890 ng/g, the concentration at 14 days [13] was 4820 ng/g and the concentration at 28 days [13] was 3620 ng/g. The concentration at 90 days [13] was 2210 ng/g, the concentration at 3 days [14] was 22000 ng/g and the concentration at 7 days [14] was 17200 ng/g. For the same molecule, the concentration at 14 days [14] was 16500 ng/g, the concentration at 28 days [14] was 13200 ng/g and the concentration at 90 days [14] was 2460 ng/g. For the same molecule, the concentration at 3 days [15] was 1550 ng/g, the concentration at 7 days [15] was 435 ng/g and the concentration at 28 days [15] was 73 ng/g. The concentration at 56 days [15] was 25 ng/g, the concentration at 90 days [15] was 11 ng/g and the concentration at 3 days [16] was 278 ng/g. The concentration at 3 days [17] was 100 ng/g, the concentration at 7 days [17] was 37 ng/g and the concentration at 90 days [16] was 8 ng/g. For the same molecule, the concentration at 90 days [17] was 7 ng/g, the concentration at 3 days (7.0×100 mm stent, read-out: Mean Arterial Tissue Concentration, A non-stented region proximal to stented region) was 269 ng/g and the concentration at 3 days (7.0×100 mm stent, read-out: Mean Arterial Tissue Concentration, E non-stented region distal to stented region) was 263 ng/g.
